Assay results taken from patent publication US12564560B1, “Selective serotonin receptor modulators and methods of making and using the same” (Park City Bio, LLC, priority 2024, dated 2026).

Key:
Assay type in all cases: cell-based
5-HT2A = biological target: T1, 5-HT2A (Homo sapiens, UniProt P28223); test: 5-HT2 receptor-mediated Gq activation via Gq/γ1 dissociation BRET; details: for EC50: HEK293T cells; for Hall or N-Hall?: hallucinogenic or non-hallucinogenic effect predicted from level of 5-HT2A agonist efficacy
T1 construct: expressed in transfected cells; host or cells: HEK293T
T1 sequence (P28223 whole entry): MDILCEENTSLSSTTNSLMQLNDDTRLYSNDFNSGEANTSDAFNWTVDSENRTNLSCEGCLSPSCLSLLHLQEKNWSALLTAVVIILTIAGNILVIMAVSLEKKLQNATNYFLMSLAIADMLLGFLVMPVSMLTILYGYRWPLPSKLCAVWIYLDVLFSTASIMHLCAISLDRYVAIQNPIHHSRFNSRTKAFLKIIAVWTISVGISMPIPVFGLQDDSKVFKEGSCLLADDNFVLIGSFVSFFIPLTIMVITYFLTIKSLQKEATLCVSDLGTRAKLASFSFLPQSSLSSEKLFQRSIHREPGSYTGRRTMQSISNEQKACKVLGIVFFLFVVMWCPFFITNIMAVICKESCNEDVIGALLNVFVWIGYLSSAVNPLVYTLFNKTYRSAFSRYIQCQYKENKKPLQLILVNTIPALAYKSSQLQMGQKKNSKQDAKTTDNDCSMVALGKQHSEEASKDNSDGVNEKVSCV
Excerpt: (§1) To measure 5-HT2 receptor-mediated Gq activation via Gq/y1 dissociation as measured by Bioluminescence Resonance Energy Transfer (BRET) (McCorvy J D, Wacker D, Wang S, Agegnehu B, Liu J, Lansu K, Tribo AR, Olsen RHJ, Che T, Jin J, Roth BL. Structural determinants of 5-HT2B receptor activation and biased agonism. Nat Struct Mo/Biol. 2018; 25(9): 787-96), HEK293T cells were sub-cultured in Dulbecco's Modified Eagle Medium (DMEM) supplemented with 10% dialyzed fetal bovine serum (FBS) and were co-transfected in a 1:1:1:1 ratio with Rluc8-fused human Gaq (Gaq-Rluc8), a GFP2-fused to the C-terminus of human Gy1(Gy1-GFP2), human GI31, and 5-HT2 receptor using TransiT-2020. After at least 18-24 hours, transfected cells were plated in poly-lysine coated 96-well white clear bottom cell culture plates in DMEM containing 1% dialyzed FBS at a density of 25,000-40,000 cells in 200 μL per well and incubated overnight. The following day, medium was decanted, and cells were washed with 60 μL of drug buffer (1×HBSS, 20 mM HEPES, pH 7.4), then 60 μL of drug buffer was added per well. Cells were pre-incubated at in a humidified atmosphere at 37° C. before receiving drug stimulation. Drug stimulation utilized 30 μL addition of drug (3X) diluted in McCorvy buffer (1×HBSS, 20 mM HEPES, pH 7.4, supplemented with 0.3% BSA fatty acid free, 0.03% ascorbic acid) and plates were incubated at for 1 hour at 37° C. Substrate addition occurred 15 minutes before reading and utilized 10 μL of the Rluc substrate coelenterazine 400a for Gq dissociation BRET^2 (Prolume/Nanolight, 5 μM final concentration). Plates were read for luminescence at 400 nm and fluorescent GFP2 emission at 510 nm at 1 second per well using a Mithras LB940 multimode microplate reader (e.g. one provided by Berthold). The BRET ratios of fluorescence/luminescence were calculated per well and were plotted as a function of drug concentration using Graphpad Prism 8 (Graphpad Software Inc., San Diego, CA). Data were normalized to % 5-HT stimulation and analyzed using nonlinear regression “log(agonist) vs. response” to yield Emax and EC50 parameter estimates. Results are shown in Table 5, where A=<10; B=10 to <100; C=100 to 1000 and D=>1000; +++=>80%; ++=50 to 80%; and +=<50%; NA=No Activity. […] Hallucinogenic (“Hall”) or non-hallucinogenic (“N-Hall”) plastogenic effect is predicted for compounds based on the level 5-HT2A agonist efficacy.

5-HT2B = biological target: T2, 5-HT2B (Homo sapiens, UniProt P41595); test: as above; details: HEK293T cells
T2 construct: expressed in transfected cells; host or cells: HEK293T
T2 sequence (P41595 whole entry): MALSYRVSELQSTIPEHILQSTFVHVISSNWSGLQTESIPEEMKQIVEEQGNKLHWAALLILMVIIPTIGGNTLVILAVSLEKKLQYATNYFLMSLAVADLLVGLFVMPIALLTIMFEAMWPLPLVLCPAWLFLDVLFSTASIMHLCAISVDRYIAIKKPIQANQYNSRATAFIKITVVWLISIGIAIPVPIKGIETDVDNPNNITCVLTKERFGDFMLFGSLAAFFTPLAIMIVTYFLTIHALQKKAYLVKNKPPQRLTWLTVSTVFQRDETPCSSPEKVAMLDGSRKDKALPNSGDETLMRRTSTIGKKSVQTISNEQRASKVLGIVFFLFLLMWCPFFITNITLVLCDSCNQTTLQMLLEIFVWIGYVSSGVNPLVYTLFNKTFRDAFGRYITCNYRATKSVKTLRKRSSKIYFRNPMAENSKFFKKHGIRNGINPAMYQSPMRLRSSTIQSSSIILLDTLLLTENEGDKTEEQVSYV
Excerpt: as §1

5-HT2C [1] = biological target: T3, 5-HT2C (Homo sapiens, UniProt P28335); test: as above; parameters: expressed in transfected cells; host or cells: HEK293T
T3 sequence (P28335 33-458): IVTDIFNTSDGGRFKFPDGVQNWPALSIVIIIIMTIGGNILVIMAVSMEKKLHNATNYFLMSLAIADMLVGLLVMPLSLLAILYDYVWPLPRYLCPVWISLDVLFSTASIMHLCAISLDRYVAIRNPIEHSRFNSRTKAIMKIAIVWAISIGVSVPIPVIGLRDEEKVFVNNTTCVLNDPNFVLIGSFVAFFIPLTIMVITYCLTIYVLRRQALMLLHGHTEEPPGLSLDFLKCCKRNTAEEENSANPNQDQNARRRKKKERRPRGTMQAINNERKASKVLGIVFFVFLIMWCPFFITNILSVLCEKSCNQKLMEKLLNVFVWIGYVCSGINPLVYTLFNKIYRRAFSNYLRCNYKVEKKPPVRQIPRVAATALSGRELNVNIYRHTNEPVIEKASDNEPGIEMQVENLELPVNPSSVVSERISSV
Excerpt: as §1

5-HT2C [2] = biological target: T3, 5-HT2C; test: 5-HT2C Gq signaling bias compared to β-arrestin signaling; parameters: expressed in transfected cells; host or cells: HEK293T (Gq arm; β-arrestin arm not described); details: primary 5-HT2C signaling via Gq compared to β-arrestin
Excerpt: To measure 5-HT2 receptor-mediated Gq activation via Gq/y1 dissociation as measured by Bioluminescence Resonance Energy Transfer (BRET) (McCorvy J D, Wacker D, Wang S, Agegnehu B, Liu J, Lansu K, Tribo AR, Olsen RHJ, Che T, Jin J, Roth BL. Structural determinants of 5-HT2B receptor activation and biased agonism. Nat Struct Mo/Biol. 2018; 25(9): 787-96), HEK293T cells were sub-cultured in Dulbecco's Modified Eagle Medium (DMEM) supplemented with 10% dialyzed fetal bovine serum (FBS) and were co-transfected in a 1:1:1:1 ratio with Rluc8-fused human Gaq (Gaq-Rluc8), a GFP2-fused to the C-terminus of human Gy1(Gy1-GFP2), human GI31, and 5-HT2 receptor using TransiT-2020. After at least 18-24 hours, transfected cells were plated in poly-lysine coated 96-well white clear bottom cell culture plates in DMEM containing 1% dialyzed FBS at a density of 25,000-40,000 cells in 200 μL per well and incubated overnight. The following day, medium was decanted, and cells were washed with 60 μL of drug buffer (1×HBSS, 20 mM HEPES, pH 7.4), then 60 μL of drug buffer was added per well. Cells were pre-incubated at in a humidified atmosphere at 37° C. before receiving drug stimulation. […] Substrate addition occurred 15 minutes before reading and utilized 10 μL of the Rluc substrate coelenterazine 400a for Gq dissociation BRET^2 (Prolume/Nanolight, 5 μM final concentration). Plates were read for luminescence at 400 nm and fluorescent GFP2 emission at 510 nm at 1 second per well using a Mithras LB940 multimode microplate reader (e.g. one provided by Berthold). The BRET ratios of fluorescence/luminescence were calculated per well and were plotted as a function of drug concentration using Graphpad Prism 8 (Graphpad Software Inc., San Diego, CA). Data were normalized to % 5-HT stimulation and analyzed using nonlinear regression “log(agonist) vs. response” to yield Emax and EC50 parameter estimates. […]

| Structure (SMILES) | EC50 (5-HT2A; Gq dissociation BRET) [nM] | Hall or N-Hall? (5-HT2A) | EC50 (5-HT2B) [nM] | EC50 (5-HT2C [1]) [nM] | 5-HT2C Gq signaling bias? (5-HT2C [2]) | Emax (5-HT2A; Gq dissociation BRET, normalized to % 5-HT stimulation) [%] | Emax (5-HT2C [1]; read-out: 5-HT2C Emax) [%] |
| --- | --- | --- | --- | --- | --- | --- | --- |
| CNC[C@H]1C[C@@H]1c1cc(F)ccc1OC | 100 to 1000 | N-Hall | 10 to 100 | 10 to 100 | Yes |  |  |
| CNCC1CC1c1cc(F)ccc1SC (stereo not drawn) | 100 to 1000 | N-Hall |  | < 10 | Yes |  |  |
| CSc1ccc(F)cc1C1CC1CN(C)C (stereo not drawn) | > 1000 | N-Hall |  | 10 to 100 | Yes | < 50 | < 50 |
